In general, IC50 refers to the concentration needed to halve the response being measured. Read a high IC50 as lower potency.

In brackets after ≈: the same amount, converted by molar mass.

In experiment [1] the target is T1, Farnesyl-protein transferase (Ftase) (Bos taurus, UniProt P29702+P49355).
T1 construct: Farnesyl-protein transferase (Ftase) from bovine brain was chromatographed on DEAE-Sephacel; from tissue; host or cells: bovine brain, partially purified (DEAE-Sephacel, N-octyl agarose, mono Q)
Description: RASIT ASSAY I: inhibition of Ras farnesylation in vitro. The format is biochemical, bovine. As to conditions: Ras-CVLS 3.5 μM, 0.25 μM [3H]FPP. The procedure: (§1) The intrinsic farnesyl-protein transferase (FTase) activity of representative compounds of this invention was measured by the assays described below:
Farnesyl-protein transferase (Ftase) from bovine brain was chromatographed on DEAE-Sephacel (Pharmacia, 0-0.8M NaCl gradient elution), N-octyl agarose (Sigma, 0-0.6M Nacl gradient elution), and a mono Q HPLC column (Pharmacia, 0-0.3M NaCl gradient). Ras-CVLS at 3.5 μM, 0.25 μM [^3 H]FPP, and the indicated compounds were incubated with this partially purified enzyme preparation. The Ftase data presented below is a measurement of the ability of the test compound to inhibit Ras farnesylation in vitro.
(§2) Table 8 lists IC50 data which is representative of the intrinsic Ras inhibitory activity of the compounds of this invention. Data of representative compounds from each embodiment and class of the invention is provided. When an inhibitory value is not provided for a given assay, the compound was not tested in that protocol.

Experiment [2] concerns the target T1, Farnesyl-protein transferase (Ftase). Description: RASIT ASSAY II: inhibition of Ras farnesylation in vitro. It is filed as biochemical, bovine. The note with it: Ras-CVLS 1.0 μM, 0.5 μM [3H]FPP. The procedure: as §1
Farnesyl-protein transferase (Ftase) from bovine brain was chromatographed on DEAE-Sephacel (Pharmacia, 0-0.8M NaCl gradient elution), N-octyl agarose (Sigma, 0-0.6M Nacl gradient elution), and a mono Q HPLC column (Pharmacia, 0-0.3M NaCl gradient). Ras-CVLS at 1.0 μM, 0.5 μM [^3 H]FPP, and the indicated compounds were incubated with this partially purified enzyme preparation. The Ftase data presented below is a measurement of the ability of the test compound to inhibit Ras farnesylation in vitro.
as §2

The test system of a further experiment is C. parapsilosis MY1010. Description: Antifungal MIC, microtiter dilution assay. The format is cell-based. As to conditions: Lodderomyces parapsilosis, 24 to 48 hours, 35° C., read-out: Minimum Inhibitory Concentration. How it is done:
(§3) The compounds are particularly active towards filamentous fungi and yeasts including Candida albicans and Cryptococcus neoformans. The sensitivity of filamentous fungi and yeast was determined using inhibitor dilution assays in microtiter format. The compounds were dissolved in DMSO at 2 mg/ml and serially diluted in 0.1M phosphate buffer, pH 7.0 in the microtiter dish from 100 to 0.006 μg/ml. A standardized spore suspension for testing the filamentous fungi was prepared by inoculating Antibiotic Medium #3 containing 1.5% agar with spores such that 1.5×10^3 colony forming units were added per well. The microtiter wells were filled with 50 μl of buffer containing compound and 50 μl of inoculated medium.
(§4) The sensitivity of yeasts was determined by inoculating yeast nitrogen base containing 1% dextrose (YNB/G) with aliquots of an overnight yeast culture grown in Yeast Morphology (YM) media at 35° C. and diluting in YNB/G to yield a final concentration of 1.5-7.5×10^3 colony forming units/well. To test the sensitivity of yeast, compound was solubilized in 10 percent aqueous DMSO at 2.56 mg/ml. The compound was diluted serially in YNB/G from 128 to 0.06 μg/ml and further diluted 1:10 in YNB/G. The wells were filled with 150 μl of media containing drug. […] Representative of the antifungal activity are the minimum inhibitory concentration data shown below for representative compounds from the various embodiments and classes described hereinabove.

Another experiment relates to C. tropicalis MY1012. Description: Antifungal MIC, microtiter dilution assay. It is filed as cell-based. As to conditions: Candida tropicalis, 24 to 48 hours, 35° C., read-out: Minimum Inhibitory Concentration. How it is done:
as §3, §4

The test system of another experiment is Candida albicans MY1055. Nature of the experiment: Antifungal MIC, microtiter dilution assay. As to conditions: 24 to 48 hours, 35° C., read-out: Minimum Inhibitory Concentration. It is filed as cell-based. The procedure: as §3, §4
Another experiment concerns Crypt. neoformans MY1051. Description: Antifungal MIC, microtiter dilution assay. It is filed as cell-based. As to conditions: Cryptococcus neoformans, 24 to 48 hours, 35° C., read-out: Minimum Inhibitory Concentration. The procedure:
as §3, §4

The test system of a further experiment is Aspergillus flavus MF383. Description: Antifungal MIC, microtiter dilution assay. It is filed as cell-based. The note with it: 42 hours, 28° C., read-out: Minimum Inhibitory Concentration. How it is done:
as §3, §4

As to `CC[C@H](C)C[C@H](C)/C=C/C(=O)O[C@@H]1[C@@H](O)[C@@]2(CCCOC(=O)CCCc3ccccc3)O[C@H](C(=O)O)[C@@](O)(C(=O)O)[C@]1(C(=O)O)O2` [Compound 39e, 39-4-phenylbutyrate ester], the values for the concentration for half-maximal inhibition (IC50) in experiment [1] and in experiment [2] were 120 nM and 19 nM, respectively.
For `C=C(CC[C@]12O[C@H](C(=O)O)[C@@](O)(C(=O)O)[C@](C(=O)O)(O1)[C@H](OC(=O)NCc1ccccc1)[C@H]2O)[C@@H](OC(C)=O)[C@H](C)Cc1ccccc1` [Compound 5s], the MIC was greater than 128 µg/mL with C. parapsilosis MY1010, greater than 128 µg/mL with C. tropicalis MY1012, 1 µg/mL (≈ 1.49 µM) in the experiment with Candida albicans MY1055 and 32 µg/mL (≈ 47.6 µM) in the experiment with Crypt. neoformans MY1051.
Regarding `C=C(CC[C@]12O[C@H](C(N)=O)[C@@](O)(C(=O)O)[C@](C(=O)O)(O1)[C@H](OC(=O)/C=C/[C@@H](C)C[C@@H](C)CC)[C@H]2O)[C@@H](OC(C)=O)[C@H](C)Cc1ccccc1` [Compound 12a, IA-3-carboxamide], the MIC in the experiment with Aspergillus flavus MF383 was 2 µg/mL (≈ 2.9 µM); with C. parapsilosis MY1010, 8 µg/mL (≈ 11.6 µM); in the experiment on C. tropicalis MY1012 it was 2 µg/mL (≈ 2.9 µM); in the experiment on Candida albicans MY1055, 8 µg/mL (≈ 11.6 µM); with Crypt. neoformans MY1051, 1 µg/mL (≈ 1.45 µM).
With `C=C(CC[C@]12O[C@H](C(=O)O)[C@@](O)(C(=O)O)[C@](C(=O)O)(O1)[C@H](OC(=O)NCCCCCCCCCCCOc1ccccc1)[C@H]2O)[C@@H](OC(C)=O)[C@H](C)Cc1ccccc1` [Compound 5u], the IC50 in experiment [1] is 500 nM; in experiment [2], 27 nM.
Consider `CC[C@H](C)C[C@H](C)CCC(=O)O[C@@H]1[C@@H](O)[C@@]2(CCC(C)[C@@H](OC(C)=O)[C@H](C)Cc3ccccc3)O[C@H](C(=O)O)[C@@](O)(C(=O)O)[C@]1(C(=O)O)O2` (stereo partly drawn) [Compound 24b, (1S,3S,4S,5R,6R,7R)-1-[(4S)-acetoxy-3,5(R)-dimethyl-6-phenyl]hexyl-4,6,7-trihydroxy-6-O-(4(S),6(S)-dimethyl-2-octanoyl)-2,8-dioxabicyclo-[3,2,1]octane-3,4,5-tricarboxylic acid], for which inhibition in experiment [1] was half-maximal at 1300 nM (IC50).
Turning to `C=C(CC[C@]12O[C@H](C(=O)O)[C@@](O)(C(=O)O)[C@](C(=O)O)(O1)[C@H](OC(=O)/C=C/[C@@H](C)C[C@@H](C)CC)[C@H]2O)[C@@H](OC(=O)CCC)[C@H](C)Cc1ccccc1` [Compound 7b, IA-Cl(4')-Butanoyl tri-acid], the MIC with Aspergillus flavus MF383 amounted to 2 µg/mL (≈ 2.78 µM); in the experiment on C. parapsilosis MY1010, 2 µg/mL (≈ 2.78 µM); in the experiment on C. tropicalis MY1012, 2 µg/mL (≈ 2.78 µM); in the experiment with Candida albicans MY1055 it was 2 µg/mL (≈ 2.78 µM); in the experiment with Crypt. neoformans MY1051, 0.5 µg/mL (≈ 0.696 µM).
As to `C=C(CC[C@]12O[C@H](C(=O)O)[C@@](O)(C(=O)O)[C@](C(=O)O)(O1)[C@H](OC(=O)/C=C/[C@@H](C)C[C@@H](C)CC)[C@H]2O)[C@@H](OC(=O)c1ccccc1)[C@H](C)Cc1ccccc1` [Compound 7d], the IC50 in experiment [1] is 1700 nM; in experiment [2] it was 52 nM.
On to `C=C(CC[C@]12O[C@H](C(=O)O)[C@@](O)(C(=O)O)[C@](C(=O)O)(O1)[C@H](OCCCCCCCCCCOc1ccc(OC)c(OC)c1)[C@H]2O)[C@@H](OC(C)=O)[C@H](C)Cc1ccccc1` [5q"'], for which the MIC in the experiment with Aspergillus flavus MF383 was 1 µg/mL (≈ 1.2 µM); with C. parapsilosis MY1010, 1 µg/mL (≈ 1.2 µM); in the experiment with C. tropicalis MY1012 it was 128 µg/mL (≈ 154 µM); in the experiment on Candida albicans MY1055, 8 µg/mL (≈ 9.63 µM); in the experiment on Crypt. neoformans MY1051 it was 0.25 µg/mL (≈ 0.301 µM).
As to `CC[C@H](C)C[C@H](C)CCC(=O)O[C@@H]1[C@@H](O)[C@@]2(CCC(C)C[C@H](C)Cc3ccccc3)O[C@H](C(=O)O)[C@@](O)(C(=O)O)[C@]1(C(=O)O)O2` (stereo partly drawn) [Compound 25b, (1S,3S,4S, 5R,6R,7R)-1-[3,5(R)-dimethyl-6-phenyl]hexyl-4,6,7trihydroxy-6-O-(4(S),6(S)-dimethyl-2-octanoyl)-2,8-dioxabicyclo[3.2.1]octane-3,4,5-tricarboxylic acid], the MIC in the experiment with Aspergillus flavus MF383 is 4 µg/mL (≈ 6.28 µM); with C. parapsilosis MY1010, greater than 128 µg/mL; with C. tropicalis MY1012, 8 µg/mL (≈ 12.6 µM); in the experiment on Candida albicans MY1055, 8 µg/mL (≈ 12.6 µM); with Crypt. neoformans MY1051 it was 2 µg/mL (≈ 3.14 µM).
Regarding `C=C(CC[C@]12O[C@H](C(=O)Nc3ccncn3)[C@@](O)(C(=O)O)[C@](C(=O)O)(O1)[C@H](OC(=O)/C=C/[C@@H](C)C[C@@H](C)CC)[C@H]2O)[C@@H](OC(C)=O)[C@H](C)Cc1ccccc1` [Compound 12n, IA-3-(4-amidopyrimidine)], the MIC with Aspergillus flavus MF383 was determined as 2 µg/mL (≈ 2.6 µM); with C. parapsilosis MY1010, 32 µg/mL (≈ 41.7 µM); in the experiment with C. tropicalis MY1012, 8 µg/mL (≈ 10.4 µM); in the experiment on Candida albicans MY1055 it was 16 µg/mL (≈ 20.8 µM); in the experiment on Crypt. neoformans MY1051, 0.25 µg/mL (≈ 0.326 µM).
In experiment [1], `C=C(CC[C@]12O[C@H](C(=O)O)[C@@](O)(C(=O)O)[C@](C(=O)O)(O1)[C@H](OC(=O)/C=C/[C@@H](C)C[C@@H](C)CC)[C@H]2OC)[C@@H](OC(C)=O)[C@H](C)Cc1ccccc1` [5n'] displayed an IC50 of 4000 nM. The MIC worked out at 4 µg/mL (≈ 5.68 µM) with Aspergillus flavus MF383; 16 µg/mL (≈ 22.7 µM) in the experiment with C. parapsilosis MY1010; 1 µg/mL (≈ 1.42 µM) in the experiment with C. tropicalis MY1012; 4 µg/mL (≈ 5.68 µM) with Candida albicans MY1055; 1 µg/mL (≈ 1.42 µM) with Crypt. neoformans MY1051.
For the compound `C=C(CC[C@]12O[C@H](C(=O)O)[C@@](O)(C(=O)O)[C@](C(=O)O)(O1)[C@H](OC(=O)OCCCCCCCCCCCOc1ccccc1)[C@H]2O)[C@@H](OC(C)=O)[C@H](C)Cc1ccccc1` [Compound 5y], the results for the IC50 in experiment [1] and in experiment [2] were 500 nM and 27 nM, respectively.
As to `C=C(CC[C@]12O[C@H](C(=O)O)[C@@](O)(C(=O)O)[C@](C(=O)O)(O1)[C@H](OC(=O)Nc1ccc(-c3ccccc3)cc1)[C@H]2O)[C@@H](OC(C)=O)[C@H](C)Cc1ccccc1` [Compound 5t], the MIC is 0.5 µg/mL (≈ 0.681 µM) in the experiment on Aspergillus flavus MF383; greater than 128 µg/mL in the experiment with C. parapsilosis MY1010; 0.5 µg/mL (≈ 0.681 µM) with C. tropicalis MY1012; 8 µg/mL (≈ 10.9 µM) in the experiment with Candida albicans MY1055; greater than 128 µg/mL in the experiment on Crypt. neoformans MY1051.

The values above are taken from US5506262A, “Cholesterol lowering compounds” (Merck & Co., Inc., priority 1993, dated 1996).
